The values that follow come from PubChem BioAssay (NCI).

Test systems include OVCAR-4 ovarian; SK-MEL-2 melanoma; PC-3 prostate; OVCAR-5 ovarian; MDA-N; NCI-H460 lung; OVCAR-8 ovarian; IGROV1 ovarian; MCF7 breast; HCT-116 colon; RXF 393 renal; SN12C renal; UO-31 renal; CAKI-1 renal; U251 CNS; CCRF-CEM leukemia; SW-620 colon; HL-60(TB) leukemia.
What all share (test): NCI anticancer screen, dose series, 48 h

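The compound was tested at five concentrations on cells cultured in 96-well plates, with a 48-hour exposure period. TGI: total growth inhibition.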

As to `Cn1nc2ccc([N+](=O)[O-])cc2[n+]1[O-]`, the TGI in the experiment on OVCAR-4 ovarian, in the experiment with SK-MEL-2 melanoma, with PC-3 prostate, in the experiment on OVCAR-5 ovarian, in the experiment on MDA-N and with NCI-H460 lung was greater than 100 µM in each case. Also, the TGI in the experiment on OVCAR-8 ovarian, in the experiment on IGROV1 ovarian, in the experiment on MCF7 breast, in the experiment on HCT-116 colon, with RXF 393 renal and with SN12C renal was greater than 100 µM each time. Also, the TGI in the experiment with UO-31 renal, in the experiment with CAKI-1 renal, in the experiment on U251 CNS and in the experiment on CCRF-CEM leukemia was greater than 100 µM throughout.
As to `C=C1[C@H]2O[C@H]2[C@@H](OC(C)=O)[C@@]2(C)[C@@H](OC(C)=O)C[C@@H](OC(=O)CCC)[C@@](C)(O)[C@@H]2[C@@H](OC(C)=O)[C@]2(O)[C@@H](C)C(=O)O[C@H]2[C@H]1Cl`, the TGI with OVCAR-4 ovarian, with SK-MEL-2 melanoma, in the experiment on PC-3 prostate, in the experiment on OVCAR-5 ovarian, with SW-620 colon and in the experiment on MDA-N was greater than 100 µM throughout. Further, the TGI in the experiment on NCI-H460 lung, in the experiment on OVCAR-8 ovarian, in the experiment with HL-60(TB) leukemia, in the experiment with MCF7 breast, in the experiment on HCT-116 colon and in the experiment on RXF 393 renal was greater than 100 µM each time. For the same compound, the TGI in the experiment on SN12C renal, with UO-31 renal, in the experiment on CAKI-1 renal and in the experiment on U251 CNS was greater than 100 µM in each case.
As to `COC(=O)CCC1=NCC(C)(C)O1`, the TGI in the experiment on OVCAR-4 ovarian, in the experiment with SK-MEL-2 melanoma, with PC-3 prostate, in the experiment with OVCAR-5 ovarian, in the experiment with SW-620 colon and in the experiment on MDA-N was greater than 10 µM each time. Besides, the TGI in the experiment with NCI-H460 lung, in the experiment on OVCAR-8 ovarian, with IGROV1 ovarian, in the experiment on MCF7 breast, in the experiment on HCT-116 colon and with RXF 393 renal was greater than 10 µM throughout. The TGI in the experiment on SN12C renal, in the experiment with UO-31 renal, in the experiment on CAKI-1 renal, in the experiment with U251 CNS and in the experiment with CCRF-CEM leukemia was greater than 10 µM throughout.
Take `CC(=O)NC1C(OC(C)C(=O)NC(C(=O)NC(CCC(=O)NCCCNC2c3ccccc3Nc3cccc([N+](=O)[O-])c32)C(N)=O)C(C)C)C(O)C(CO)OC1(C)OCc1ccccc1` (centres undefined): the TGI in the experiment with OVCAR-4 ovarian is 3.64 µM; in the experiment on SK-MEL-2 melanoma, 3.56 µM; in the experiment with PC-3 prostate, 3.33 µM; in the experiment on OVCAR-5 ovarian, 9.44 µM; in the experiment on SW-620 colon, 1.81 µM; in the experiment on MDA-N, 4.78 µM. Further, the TGI in the experiment on NCI-H460 lung turned out to be 0.405 µM; with OVCAR-8 ovarian it was 3.28 µM; in the experiment on IGROV1 ovarian, 3.2 µM; in the experiment on MCF7 breast, 2.85 µM; with HCT-116 colon it was 1.3 µM; in the experiment on RXF 393 renal, 2.13 µM. Moreover, the TGI was 3.82 µM in the experiment with SN12C renal; 2.73 µM in the experiment on UO-31 renal; 3.05 µM in the experiment on CAKI-1 renal; 3.22 µM with U251 CNS; 4.59 µM in the experiment with CCRF-CEM leukemia.
For the compound `CN1CC(c2ccccc2)C(O)(C2(c3ccccc3)CN(C)CC(c3ccccc3)C2=O)C(c2ccccc2)C1` (centres undefined), the TGI in the experiment with OVCAR-4 ovarian, in the experiment with SK-MEL-2 melanoma, in the experiment on PC-3 prostate, in the experiment with OVCAR-5 ovarian, in the experiment on SW-620 colon and with MDA-N was greater than 100 µM each time. Further, the TGI with NCI-H460 lung, in the experiment on OVCAR-8 ovarian, with IGROV1 ovarian, in the experiment on HL-60(TB) leukemia, in the experiment on MCF7 breast and in the experiment with HCT-116 colon was greater than 100 µM throughout. Further, the TGI in the experiment on SN12C renal, in the experiment on UO-31 renal, in the experiment on CAKI-1 renal and in the experiment on U251 CNS was greater than 100 µM in each case.
`COc1cc2c(cc1OC)C1c3ccccc3CCN1CCC2` (centres undefined): the TGI in the experiment on PC-3 prostate, with OVCAR-5 ovarian, in the experiment on SW-620 colon, in the experiment with MDA-N, in the experiment on OVCAR-8 ovarian and with IGROV1 ovarian was greater than 100 µM in each case. Moreover, the TGI in the experiment on HL-60(TB) leukemia, with MCF7 breast, in the experiment with HCT-116 colon, in the experiment with SN12C renal, in the experiment on UO-31 renal and in the experiment with CAKI-1 renal was greater than 100 µM in each case. Further, the TGI in the experiment on U251 CNS and in the experiment on CCRF-CEM leukemia was greater than 100 µM each time.
As to `CC(=O)Nc1ccc2c3c(cc(O)c2c1)N(C(=O)CCCCC(=O)N1CC(CCl)c2c1cc(O)c1cc(NC(C)=O)ccc21)CC3CCl` (centres undefined), the TGI in the experiment with OVCAR-4 ovarian is greater than 27.7 µM; in the experiment on SK-MEL-2 melanoma, 0.316 µM; with PC-3 prostate it was greater than 33.7 µM; in the experiment on OVCAR-5 ovarian, 8.54 µM; with SW-620 colon it was greater than 100 µM; in the experiment with MDA-N it was 0.566 µM. Also, the TGI was greater than 32.4 µM in the experiment with OVCAR-8 ovarian; 4.39 µM in the experiment with HL-60(TB) leukemia; 0.264 µM with MCF7 breast; greater than 100 µM with HCT-116 colon; 0.41 µM in the experiment on RXF 393 renal; 6.4 µM with SN12C renal. Besides, the TGI in the experiment on UO-31 renal was greater than 44.6 µM; in the experiment with CAKI-1 renal, 18.1 µM.
Consider `O=C1C2=Cc3ccccc3OC2(O)Oc2ccccc21` (centres undefined), for which the TGI with OVCAR-4 ovarian, with SK-MEL-2 melanoma, in the experiment on PC-3 prostate, in the experiment on OVCAR-5 ovarian, in the experiment on SW-620 colon and in the experiment with MDA-N was greater than 100 µM each time. Also, the TGI in the experiment with OVCAR-8 ovarian, with IGROV1 ovarian, in the experiment on MCF7 breast, in the experiment with HCT-116 colon, in the experiment with RXF 393 renal and in the experiment on SN12C renal was greater than 100 µM throughout. Also, the TGI in the experiment on CAKI-1 renal, in the experiment on U251 CNS and with CCRF-CEM leukemia was greater than 100 µM throughout.
Turning to `COc1ccc2c(c1)CC1COc3cc(OC)ccc3C1O2` (centres undefined), the TGI in the experiment on SK-MEL-2 melanoma, with PC-3 prostate, with OVCAR-5 ovarian, in the experiment with SW-620 colon, in the experiment with MDA-N and with OVCAR-8 ovarian was greater than 100 µM in each case. Further, the TGI in the experiment with IGROV1 ovarian, with MCF7 breast, with HCT-116 colon, in the experiment with SN12C renal, with UO-31 renal and with CAKI-1 renal was greater than 100 µM each time. Moreover, the TGI in the experiment with U251 CNS and in the experiment on CCRF-CEM leukemia was greater than 100 µM in each case.
